# According to patent US4624952A, “Pyridazine and pyrimidine compounds active on the central nervous system as sedatives or anticonvulsants” (Sanofi, priority 1983, dated 1986):
# Like-named read-outs stand apart in the source and are kept apart here.
# Key:
# [1] = test system: convulsions provoked by bicuculline in Charles River CDl mice; experiment: Antagonism of the convulsions provoked by bicuculline; format: in vivo; conditions: mouse; oral, 60 min before bicuculline 0.8 mg/kg i.v.; read-out: Median effective dose (ED50) Antagonism of Bicuculline
# Method: (§1) The anti-epileptic effect of the products in the mouse was assessed on a model of convulsions provoked by an electric shock, and on a model of convulsions induced by a chemical agent: bicuculline.
# The batches were constituted by 10 Charles River CDl mice, weighing between 20 and 22 g. The products were administered by the oral route, 60 minutes before the bicuculline (0.8 mg/kg, i.v.). The appearance of tonic convulsions was noted during the 60 minutes following the injection of the bicuculline.
# [2] = test system: turnaround reflex of mice; experiment: Loss of turnaround reflex (sleep-inducing effect); format: in vivo, mouse; conditions: 100 mg/kg, oral
# Method: (§2) The sedative effect is translated by the reduction of the spontaneous motility of the animals. This was measured by the actimeter test developed by BOISSIER and SIMON (1965). The equipment was composed of actimetric cages, of the Apelab type (26×21.5×10 cm), through which pass two light rays which act on a photoelectric cell. The batches were constituted by 12 female Charles River CDl mice weighing between 20 and 24 g. The animals were placed individually in the cages 45 minutes after the oral administration of the products at the dose of 250 mg/kg or at the dose of 100 mg/kg. Each passage through a light beam was counted by an individual meter. The scores corresponding to the movements of the animals were recorded for 10 minutes and compared with the scores made by the batches of control animals, treated solely by the vehicle (0.1N HCl).
# On the other hand, at the dose of 100 mg/kg, the CM 41378 provokes a loss of turnaround reflex characteristic of a sleep-inducing effect in 50% of the animals treated.
# [3] = test system: convulsions induced by an electric shock in Charles River CDl mice; experiment: Antagonism of the convulsions induced by an electric shock; format: in vivo; conditions: 1 h; mouse; oral, 60 min before electric shock (12.5 volts, 0.3 seconds); read-out: Median effective dose (ED50) Antagonism of the electric shock
# Method: as §1
# The test was slightly modified from that of SWINYARD et al (1952) and ASAMI et al (1974). The equipment was composed of a Racia shock generator provided with two ocular electrodes delivering a current of 12.5 volts for 0.3 seconds. The batches were constituted by 10 Charles River CDl mice, weighing between 20 and 24 g. The products were administered by the oral route, 60 minutes before the electric shock. The animals presenting no tonic extension of the rear limbs were considered as being protected from the convulsive crisis.
# [4] = Lethal dose in the mouse after acute administration; conditions: in vivo; for mortality at 72 h: po, read-out: % of toxicity (animals which die)
# Method: The products were administered by the oral route to batches of 5 female Charles River CDl mice, weighing between 20 and 24 g. They were solubilized in 0.1N HCl.
# Toxicity was noted during the 72 hours following administration of the products. The LD50 was calculated for two products.
# The results expressed in percentage of animals which die in the […] consecutive to the oral administration of the products are noted in the preceding Table.
# [5] = test system: loss of the turn-around reflex in Charles River CDl mice; experiment: Potentialization of narcosis by pentobarbital; format: in vivo; conditions: po; mouse; product 60 min before pentobarbital 20 mg/kg i.p.
# Method: With a view to assessing the hypnogenic power of the products, we have studied their capacity to potentialize the effects of a subnarcotic dose of pentobarbital in the mouse. The batches were constituted by 10 Charles River CDl mice, weighing between 20 and 24 g. The pentobarbital (20 mg/kg, i.p.) was administered 60 minutes after administration of the products. The criterion of sleep-induction retained was the loss of the turn-around reflex.
# [6] = test system: spontaneous motility of female Charles River CDl mice; experiment: Effect of the products on the spontaneous motility (actimeter test); format: in vivo; conditions: Mus musculus, po, 0.75 h, 45 min after administration, recorded 10 min, vs controls, * p 0,05, ** p 0,01 (Student test), read-out: Locomotor activity Score (p.cent/controls); for change in vivo at 250 mg/kg: 250 mg/kg p.o.
# Method: as §2
# [7] = test system: spontaneous motility of female Charles River CDl mice; experiment: as above; format: in vivo; conditions: Mus musculus, po, 0.75 h, 45 min after administration, recorded 10 min, vs controls, read-out: Locomotor activity Score (p.cent/controls)
smiles,measurement,setting,value
"OC1CCN(c2ccc(-c3ccc(Cl)cc3Cl)nn2)CC1 [SR 41378, 3-(4-hydroxy-piperidino)-6-(2,4-dichloro-phenyl)pyridazine]",ED50,[1],5.7 mg/kg
same,"loss of turnaround reflex characteristic of a sleep-inducing effect, animals treated",[2],50%
same,ED50,[3],30 mg/kg
same,LD50 at 72 h,"[4]; oral, calculated, read-out: LD50 (DL50)",423 mg/kg
same,ED50,[5],21 mg/kg
OC1CCN(c2nccc(-c3ccc(Cl)cc3)n2)CC1 [SR 41554],ED50,[1],147 mg/kg
same,ED50,[3],145 mg/kg
same,change in vivo at 250 mg/kg,[6],-26%
same,mortality at 72 h,[4]; 250 mg/kg p.o.,0%
same,mortality at 72 h,[4]; 500 mg/kg p.o.,0%
same,mortality at 72 h,[4]; 1000 mg/kg p.o.,0%
same,ED50,[5],66 mg/kg
OC1CCN(c2ncc(Cl)c(-c3ccc(Cl)cc3)n2)CC1 [SR 41556],change in vivo at 250 mg/kg,[6],-29%
same,mortality at 72 h,[4]; 250 mg/kg p.o.,0%
same,mortality at 72 h,[4]; 500 mg/kg p.o.,0%
same,mortality at 72 h,[4]; 1000 mg/kg p.o.,0%
OC1CCN(c2ccc(-c3ccccc3F)nn2)CC1 [SR 41558],ED50,[1],30 mg/kg
same,ED50,[3],115 mg/kg
same,change in vivo at 250 mg/kg,[6],-93%
same,mortality at 72 h,[4]; 250 mg/kg p.o.,0%
same,mortality at 72 h,[4]; 500 mg/kg p.o.,0%
same,mortality at 72 h,[4]; 1000 mg/kg p.o.,80%
Oc1ccccc1-c1ccc(N2CCC(O)CC2)nn1 [SR 41559],change in vivo at 250 mg/kg,[6],-66%
same,mortality at 72 h,[4]; 250 mg/kg p.o.,0%
same,mortality at 72 h,[4]; 500 mg/kg p.o.,0%
same,mortality at 72 h,[4]; 1000 mg/kg p.o.,0%
OCCN(CCO)c1nccc(-c2ccc(Cl)cc2)n1 [SR 41590],mortality at 72 h,[4]; 250 mg/kg p.o.,0%
same,mortality at 72 h,[4]; 500 mg/kg p.o.,0%
same,mortality at 72 h,[4]; 1000 mg/kg p.o.,40%
OCCN(CCO)c1nccc(-c2ccccc2Cl)n1 [SR 41591],mortality at 72 h,[4]; 250 mg/kg p.o.,0%
same,mortality at 72 h,[4]; 500 mg/kg p.o.,0%
same,mortality at 72 h,[4]; 1000 mg/kg p.o.,0%
"O=[N+]([O-])c1ccccc1-c1ccc(N2CCC(O)CC2)nn1 [SR 41673, 3-(4-hydroxy-piperidino)-6-(2-nitrophenyl)-pyridazine]",ED50,[1],81 mg/kg
same,ED50,[3],27 mg/kg
same,change in vivo at 250 mg/kg,[6],-61%
same,mortality at 72 h,[4]; 250 mg/kg p.o.,0%
same,mortality at 72 h,[4]; 500 mg/kg p.o.,0%
same,mortality at 72 h,[4]; 1000 mg/kg p.o.,20%
"CNC(=O)OC1CCN(c2ccc(-c3ccccc3Cl)nn2)CC1 [SR 41820, 3-(4-methylcarbamoyloxy-piperidino)-6-(2-chloro-phenyl)pyridazine]",ED50,[1],13 mg/kg
same,ED50,[3],10 mg/kg
OC1CCN(c2ccc(-c3cc(Cl)ccc3Cl)nn2)CC1 [SR 41932],ED50,[1],131 mg/kg
same,change in vivo at 150 mg/kg,"[7]; 150 mg/kg p.o., ** p 0,01 (Student test)",-59%
same,ED50,[3],30 mg/kg
same,mortality at 72 h,[4]; 250 mg/kg p.o.,0%
same,mortality at 72 h,[4]; 500 mg/kg p.o.,0%
same,mortality at 72 h,[4]; 1000 mg/kg p.o.,100%
CN(C)C(=O)OC1CCN(c2ccc(-c3ccccc3Cl)nn2)CC1 [SR 42095],ED50,[1],1.6 mg/kg
same,change in vivo at 10 mg/kg,"[7]; 10 mg/kg p.o., * p 0,05 (Student test)",-28%
same,ED50,[3],2 mg/kg
same,ED50,[5],7.4 mg/kg
OC1CCN(c2ccc(-c3cccc4ccccc34)nn2)CC1 [SR 42399],ED50,[3],38 mg/kg
same,mortality at 72 h,[4]; 250 mg/kg p.o.,0%
same,mortality at 72 h,[4]; 500 mg/kg p.o.,0%
"Clc1ccccc1-c1ccc(N2CCC3(CC2)OCCO3)nn1 [SR 42487, 3-[1,4-dioxa-8-aza-spiro[4,5]decane-8-yl]-6-(2-chloro-phenyl)pyridazine]",ED50,[3],57 mg/kg
same,change in vivo at 100 mg/kg,[6]; 100 mg/kg p.o.,-42%
same,mortality at 72 h,[4]; 250 mg/kg p.o.,0%
same,mortality at 72 h,[4]; 500 mg/kg p.o.,0%
same,mortality at 72 h,[4]; 1000 mg/kg p.o.,0%
"O=C1CCN(c2ccc(-c3ccccc3Cl)nn2)CC1 [SR 42488, 3-(4-oxo-iperidino)-6-(2-chlorophenyl)pyridazine]",ED50,[1],35 mg/kg
same,ED50,[3],40 mg/kg
same,mortality at 72 h,[4]; 250 mg/kg p.o.,0%
same,mortality at 72 h,[4]; 500 mg/kg p.o.,0%
same,mortality at 72 h,[4]; 1000 mg/kg p.o.,0%
same,ED50,[5],67 mg/kg
